Test results reported in BindingDB's records for doi:10.1021/jm00033a017 (Dupont Pharmaceuticals, 1994).

Biological target: Prostaglandin G/H synthase 1 (Bos taurus) (UniProt O62664)
Assay: Inhibitory activity against bovine seminal vesicle prostaglandin synthetase

Chain of Prostaglandin G/H synthase 1 (Bos taurus) (O62664 whole entry, looked up): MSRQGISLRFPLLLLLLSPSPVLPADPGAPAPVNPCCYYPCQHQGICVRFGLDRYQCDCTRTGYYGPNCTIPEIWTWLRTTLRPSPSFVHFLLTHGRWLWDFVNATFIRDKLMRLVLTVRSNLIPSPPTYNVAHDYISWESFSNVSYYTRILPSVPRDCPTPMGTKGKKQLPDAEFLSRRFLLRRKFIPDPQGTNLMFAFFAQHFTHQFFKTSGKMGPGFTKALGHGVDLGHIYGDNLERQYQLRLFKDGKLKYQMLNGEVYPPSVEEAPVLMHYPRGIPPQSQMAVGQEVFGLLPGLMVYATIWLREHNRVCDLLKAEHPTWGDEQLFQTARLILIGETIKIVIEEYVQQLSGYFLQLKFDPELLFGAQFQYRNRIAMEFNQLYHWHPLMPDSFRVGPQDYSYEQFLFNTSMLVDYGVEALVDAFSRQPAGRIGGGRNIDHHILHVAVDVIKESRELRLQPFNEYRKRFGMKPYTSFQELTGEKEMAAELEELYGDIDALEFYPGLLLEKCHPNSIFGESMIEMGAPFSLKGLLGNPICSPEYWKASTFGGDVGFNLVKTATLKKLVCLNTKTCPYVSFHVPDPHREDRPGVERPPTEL

`CS(=O)(=O)c1ccc(-c2[nH]c(SC#N)cc2-c2ccc(F)cc2)cc1` [3-(4-Fluoro-phenyl)-2-(4-methanesulfonyl-phenyl)-5-thiocyanato-1H-pyrrole] was tested, and the IC50 was 6.2 µM.
